According to patent US10093883B2, “Glucose gemini surfactant compound and method for preparation thereof” (ZHEJIANG UNIVERSITY, priority 2014, dated 2018):

Assay: Surface activity test: critical micelle concentration (cmc), platinum plate method
Assay type: physicochemical
Settings: 20° C.
Method: The critical micelle concentration (cmc) of the target product was determined as 0.0068 mmol/L at 20° C., which was 3 times […] than that of the compound dodecyl glucose gemini surfactant (cmc=0.02 mmol/L) and is suitable for separation and extraction of detergents and biofilm proteins.

Row | critical micelle concentration (cmc) [mmol/L] | SMILES
1 | 0.02 | CCCCCCCCCCCCOCC(COCCOCC(COCCCCCCCCCCCC)O[C@@H]1OC(CO)[C@@H](O)C(O)C1O)O[C@@H]1OC(CO)[C@@H](O)C(O)C1O (some centres unmarked) [dodecyl glucose gemini surfactant]
2 | 0.053 | CCCCCCCCCCCCCCOCC(COCCOCC(COCCCCCCCCCCCCCC)O[C@@H]1OC(CO)[C@@H](O)C(O)C1O)O[C@@H]1OC(CO)[C@@H](O)C(O)C1O (some centres unmarked) [tetradecyl glucose gemini surfactant]
